Measured values reported in US20160194299A1 (priority 2013, published 2016).

Test system: Mtb
Assay: microbe, parasite or virus in culture
Assay type: cell-based, Mycobacterium tuberculosis
Settings: not given

| Compound | MIC (II) |
| --- | --- |
| CCOC(=O)NC(=O)c1ccsc1NC(=O)c1ccc2[nH]c(C)nc2c1 [Compound 199] | C (key: A: <1 μg/mL; B: 1-3 μg/mL; C: >3 μg/mL) |

Same assay, conditions: Mycobacterium tuberculosis, read-out: MIC (II)

| Compound | MIC [µg/mL] |
| --- | --- |
| CCOC(=O)NC(=O)c1ccsc1NC(=O)c1c(F)cc(F)cc1F [Compound 176] | > 3 |
| CCOC(=O)NC(=O)c1ccsc1NC(=O)C1CCCCC1 [Compound 177] | > 3 |
| CCOC(=O)NC(=O)c1ccsc1NC(=O)c1ccnc(C(F)(F)F)c1 [Compound 178] | > 3 |
| NC(=O)c1cnn(-c2ccccc2)c1NC(=O)c1nc2ccccc2s1 [Compound 179] | > 3 |
| CC(=O)Nc1cc(C(=O)Nc2sccc2C(=O)N2CCCCC2)ccn1 [Compound 180] | > 3 |
| CC(=O)Nc1cc(C(=O)Nc2sccc2C(=O)N2CCOCC2)ccn1 [Compound 181] | > 3 |
| CC(=O)Nc1cc(C(=O)Nc2sccc2C(=O)Nc2ccc(Cl)cc2)ccn1 [Compound 182] | > 3 |
| CNC(=O)c1ccsc1NC(=O)c1ccnc(NC(C)=O)c1 [Compound 183] | > 3 |
| CC(=O)Nc1cc(C(=O)Nc2sccc2S(C)(=O)=O)ccn1 [Compound 184] | > 3 |
| CCOC(=O)NC(=O)c1c(NC(=O)c2ccnc(NC(C)=O)c2)sc2c1CCCC2 [Compound 185] | > 3 |
| CCOC(=O)c1c(NC(=O)c2ccnc(NC(C)=O)c2)sc2c1CCCC2 [Compound 186] | > 3 |
| CCOC(=O)NC(=O)c1ccccc1NC(=O)c1ccnc(NC(C)=O)c1 [Compound 187] | > 3 |
| CCOC(=O)NC(=O)c1c(NC(=O)c2ccnc(NC(C)=O)c2)sc2c1CCN(CC)C2 [Compound 188] | > 3 |
| CCOC(=O)N(C)C(=O)c1ccsc1NC(=O)c1ccnc(NC(C)=O)c1 [Compound 189] | > 3 |
| CC(=O)Nc1cc(C(=O)Nc2nnc(C(F)(F)F)s2)ccn1 [Compound 190] | > 3 |
| O=C(Nc1sccc1C(=O)NCc1ccccc1)c1nc2ccccc2s1 [Compound 191] | > 3 |
| CCOC(=O)NC(=O)c1ccsc1NC(=O)c1ccnc(NC(=O)C(F)(F)F)c1 [Compound 193] | > 3 |
| CC(=O)Nc1cc(C(=O)Nc2sccc2S(=O)(=O)c2ccccn2)ccn1 [Compound 194] | > 3 |
| CCOC(=O)NC(=O)c1ccsc1NC(=O)c1cc2ccccc2n1C [Compound 195] | > 3 |
| CCOC(=O)NC(=O)c1ccsc1NC(=O)c1cc2cc(Cl)ccc2[nH]1 [Compound 196] | > 3 |
| CCOC(=O)NC(=O)c1ccsc1NC(=O)c1ncccn1 [Compound 197] | > 3 |
| COC(=O)Nc1cc(C(=O)Nc2sccc2C(=O)Nc2ccccn2)ccn1 [Compound 198] | > 3 |
| COC(=O)NC(=O)c1ccsc1NC(=O)c1ccc(Oc2ccccc2)cc1 [Compound 200] | > 3 |
| CCOC(=O)NC(=O)c1ccsc1NC(=O)c1nn(C)c2ccccc12 [Compound 201] | > 3 |
| CCOC(=O)NC(=O)c1ccsc1NC(=O)c1cn2c(-c3ccc(C(F)(F)F)cc3)cnc2cn1 [Compound 202] | > 3 |
| CCOC(=O)NC(=O)c1ccsc1NC(=O)c1ccc(Oc2ccc(F)cc2)cc1 [Compound 203] | > 3 |
| CCOC(=O)NC(=O)c1ccsc1NC(=O)c1ccc2c(c1)nc(C(F)(F)F)n2C(C)C [Compound 204] | > 3 |
| CC(=O)Nc1cc(C(=O)Nc2sccc2C(=O)N(C)C)ccn1 [Compound 205] | > 3 |
| CCOCCOCCOC(=O)NC(=O)c1ccsc1NC(=O)c1nc2ccccc2s1 [Compound 206] | > 3 |
| CCOC(=O)NC(=O)c1ccsc1NC(=O)c1ccc(C#N)cc1 [Compound 207] | > 3 |

Test system: Vero cells
Assay: not given
Settings: not given

| Compound | LC50 (IV) |
| --- | --- |
| CCOc1n[nH]c(-c2ccsc2NC(=O)c2nc3ccccc3s2)n1 [Compound 211] | A (key: A: >50 μg/mL; B: 50-25 μg/mL; C: <25 μg/mL) |
| N#Cc1ccccc1NC(=O)c1nc2ccccc2s1 [Compound 215] | A (key: A: >50 μg/mL; B: 50-25 μg/mL; C: <25 μg/mL) |
| CS(=O)(=O)N1CCN(C(=O)c2ccsc2NC(=O)c2nc3ccccc3s2)CC1 [Compound 229] | A (key: A: >50 μg/mL; B: 50-25 μg/mL; C: <25 μg/mL) |
